Tests used:
[1] = target: Cholinesterase (Mus musculus, UniProt Q03311); assay: Inhibition of mouse serum BuChE; type: cell-free
[2] = target: T1, Acetylcholinesterase (Mus musculus, UniProt P21836); assay: Inhibition of mouse brain AChE; type: tissue-based
T1 sequence (P21836 whole entry): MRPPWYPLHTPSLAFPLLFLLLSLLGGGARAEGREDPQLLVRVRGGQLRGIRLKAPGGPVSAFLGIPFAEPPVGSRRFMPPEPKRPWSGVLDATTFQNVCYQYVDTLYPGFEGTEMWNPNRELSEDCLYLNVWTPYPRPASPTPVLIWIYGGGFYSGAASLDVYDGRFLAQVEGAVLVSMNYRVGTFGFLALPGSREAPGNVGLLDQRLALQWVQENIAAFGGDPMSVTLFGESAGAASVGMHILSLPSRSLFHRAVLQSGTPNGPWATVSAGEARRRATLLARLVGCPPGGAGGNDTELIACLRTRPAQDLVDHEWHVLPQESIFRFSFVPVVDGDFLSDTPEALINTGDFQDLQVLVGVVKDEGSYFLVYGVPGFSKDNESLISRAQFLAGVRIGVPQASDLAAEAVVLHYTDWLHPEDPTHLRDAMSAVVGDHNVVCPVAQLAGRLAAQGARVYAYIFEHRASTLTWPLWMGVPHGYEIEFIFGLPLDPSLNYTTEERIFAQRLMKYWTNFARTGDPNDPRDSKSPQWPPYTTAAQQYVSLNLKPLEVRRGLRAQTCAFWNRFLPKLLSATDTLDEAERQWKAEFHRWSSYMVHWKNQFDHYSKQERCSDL

[3] = target: T2, Acetylcholinesterase (Homo sapiens, UniProt P22303)
T2 sequence (P22303 whole entry): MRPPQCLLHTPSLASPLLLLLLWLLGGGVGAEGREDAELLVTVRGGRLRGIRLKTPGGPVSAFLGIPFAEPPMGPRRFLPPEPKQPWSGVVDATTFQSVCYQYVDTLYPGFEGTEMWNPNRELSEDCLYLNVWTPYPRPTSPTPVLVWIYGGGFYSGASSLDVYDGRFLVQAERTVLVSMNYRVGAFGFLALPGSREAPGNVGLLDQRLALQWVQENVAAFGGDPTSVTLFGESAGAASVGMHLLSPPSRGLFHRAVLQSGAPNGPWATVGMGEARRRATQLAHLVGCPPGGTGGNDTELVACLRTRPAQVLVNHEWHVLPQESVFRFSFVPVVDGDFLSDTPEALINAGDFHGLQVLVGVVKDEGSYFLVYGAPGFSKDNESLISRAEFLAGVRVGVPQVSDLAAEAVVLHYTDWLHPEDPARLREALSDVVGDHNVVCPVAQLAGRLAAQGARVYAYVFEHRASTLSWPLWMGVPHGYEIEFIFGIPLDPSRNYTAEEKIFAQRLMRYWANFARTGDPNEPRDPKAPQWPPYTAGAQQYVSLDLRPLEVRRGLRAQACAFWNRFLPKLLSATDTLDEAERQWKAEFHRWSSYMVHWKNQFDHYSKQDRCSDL
Description: Binding affinity to AChE (unknown origin) assessed as inhibition constant incubated for 30 mins by ellman's method

[4] = target: T3, Cholinesterase (Homo sapiens, UniProt P06276)
T3 sequence (P06276 whole entry): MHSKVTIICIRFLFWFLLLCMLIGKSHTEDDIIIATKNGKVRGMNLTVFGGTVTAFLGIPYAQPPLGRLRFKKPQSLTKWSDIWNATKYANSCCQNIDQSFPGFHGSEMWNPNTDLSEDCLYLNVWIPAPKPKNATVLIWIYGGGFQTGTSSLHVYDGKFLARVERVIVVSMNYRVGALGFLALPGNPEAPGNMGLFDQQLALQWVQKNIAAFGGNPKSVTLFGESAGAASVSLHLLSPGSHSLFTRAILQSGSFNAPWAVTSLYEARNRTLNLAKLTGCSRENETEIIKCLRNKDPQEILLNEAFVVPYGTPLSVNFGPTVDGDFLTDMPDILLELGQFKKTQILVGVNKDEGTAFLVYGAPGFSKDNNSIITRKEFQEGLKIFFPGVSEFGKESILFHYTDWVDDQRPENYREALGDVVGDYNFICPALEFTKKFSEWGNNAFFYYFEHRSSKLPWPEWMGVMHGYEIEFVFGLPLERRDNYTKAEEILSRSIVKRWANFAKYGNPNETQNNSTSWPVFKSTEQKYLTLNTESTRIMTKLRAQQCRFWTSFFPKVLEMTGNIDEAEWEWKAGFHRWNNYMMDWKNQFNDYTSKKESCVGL
Description: Binding affinity to BuChE (unknown origin) assessed as inhibition constant incubated for 30 mins by ellman's method

[5] = Lipophilicity, logP of the compound; type: physicochemical; details: octanol/water
[6] = target: T4, Acetylcholinesterase (Electrophorus electricus, UniProt O42275); assay: Inhibition of electrical eel AChE by ellman's method
T4 sequence (O42275 whole entry): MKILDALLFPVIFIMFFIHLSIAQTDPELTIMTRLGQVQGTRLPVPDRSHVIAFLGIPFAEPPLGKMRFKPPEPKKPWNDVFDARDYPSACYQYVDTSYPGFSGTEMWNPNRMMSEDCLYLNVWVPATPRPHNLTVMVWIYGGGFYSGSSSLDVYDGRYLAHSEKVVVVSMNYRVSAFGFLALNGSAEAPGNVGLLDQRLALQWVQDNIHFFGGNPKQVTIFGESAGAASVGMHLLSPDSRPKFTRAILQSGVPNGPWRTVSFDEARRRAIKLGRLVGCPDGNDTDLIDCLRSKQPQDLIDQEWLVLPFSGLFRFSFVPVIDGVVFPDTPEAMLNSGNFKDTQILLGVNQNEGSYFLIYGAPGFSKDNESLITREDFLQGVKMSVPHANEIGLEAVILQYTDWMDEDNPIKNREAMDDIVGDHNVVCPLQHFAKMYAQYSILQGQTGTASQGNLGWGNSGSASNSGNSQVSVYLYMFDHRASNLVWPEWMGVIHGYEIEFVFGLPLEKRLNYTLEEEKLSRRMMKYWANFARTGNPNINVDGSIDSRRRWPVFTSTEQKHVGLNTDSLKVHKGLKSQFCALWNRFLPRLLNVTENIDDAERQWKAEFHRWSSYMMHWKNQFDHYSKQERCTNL

[7] = target: T5, Cholinesterase (Equus caballus, UniProt P81908)
T5 sequence (P81908 whole entry): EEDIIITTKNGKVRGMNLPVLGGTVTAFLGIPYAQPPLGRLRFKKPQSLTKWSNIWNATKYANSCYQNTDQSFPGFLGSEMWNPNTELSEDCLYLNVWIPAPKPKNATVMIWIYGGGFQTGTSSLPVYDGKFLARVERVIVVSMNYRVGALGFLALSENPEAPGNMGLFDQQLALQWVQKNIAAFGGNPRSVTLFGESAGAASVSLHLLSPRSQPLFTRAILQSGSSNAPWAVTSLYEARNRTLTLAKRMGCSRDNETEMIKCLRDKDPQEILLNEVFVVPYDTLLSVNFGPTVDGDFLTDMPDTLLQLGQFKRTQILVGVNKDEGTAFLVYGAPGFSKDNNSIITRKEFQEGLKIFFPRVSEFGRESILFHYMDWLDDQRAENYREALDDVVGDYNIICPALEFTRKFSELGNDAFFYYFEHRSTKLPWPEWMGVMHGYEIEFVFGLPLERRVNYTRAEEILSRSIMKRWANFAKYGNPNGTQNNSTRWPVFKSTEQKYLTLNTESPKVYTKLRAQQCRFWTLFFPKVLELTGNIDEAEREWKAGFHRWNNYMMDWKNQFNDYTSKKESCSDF
Description: Inhibition of equine serum BuChE by ellman's method

[8] = target: T4, Acetylcholinesterase
Description: Binding affinity to electrical eel AChE assessed as inhibition constant incubated for 20 mins by absorbance based analysis

[9] = target: T2, Acetylcholinesterase; assay: Inhibition of AChE (unknown origin)
[10] = target: T3, Cholinesterase; remark: listed apart in the source
Description: Binding affinity to BuChE (unknown origin) assessed as inhibition constant

[11] = Antioxidant activity assessed as ABTS radical scavenging activity; type: functional
[12] = target: T5, Cholinesterase; assay: Binding affinity to horse serum BuChE using ATCh-iodide as substrate by ellman's method

Sequence of Cholinesterase (Mus musculus, UniProt Q03311) (Q03311 whole entry): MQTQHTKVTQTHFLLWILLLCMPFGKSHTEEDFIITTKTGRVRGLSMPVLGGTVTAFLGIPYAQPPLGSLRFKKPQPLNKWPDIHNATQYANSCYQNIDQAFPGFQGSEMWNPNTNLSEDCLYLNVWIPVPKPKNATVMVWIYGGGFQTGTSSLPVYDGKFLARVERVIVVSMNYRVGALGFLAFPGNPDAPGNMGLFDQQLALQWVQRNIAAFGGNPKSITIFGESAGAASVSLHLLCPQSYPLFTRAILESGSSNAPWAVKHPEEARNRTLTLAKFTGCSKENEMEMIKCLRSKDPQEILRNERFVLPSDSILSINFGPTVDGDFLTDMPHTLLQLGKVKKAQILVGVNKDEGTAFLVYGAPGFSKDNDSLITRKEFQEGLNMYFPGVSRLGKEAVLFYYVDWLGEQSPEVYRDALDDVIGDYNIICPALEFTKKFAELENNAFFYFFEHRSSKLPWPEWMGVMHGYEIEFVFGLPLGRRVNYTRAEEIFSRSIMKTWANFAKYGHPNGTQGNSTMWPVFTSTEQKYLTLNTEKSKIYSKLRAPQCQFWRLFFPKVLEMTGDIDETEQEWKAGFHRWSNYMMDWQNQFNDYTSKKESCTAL

CO[C@@H]1O[C@H](CNCCCCCCCCCNc2c3c(nc4ccccc24)CCCC3)[C@H]2OC(C)(C)O[C@@H]12
IC50 [1]: 0.037 µM | IC50 [2]: 0.09 µM

CC(=O)Nc1nc(Cl)c2ncn(C3O[C@H](C(=O)NCc4ccccc4)[C@@H](OC(C)=O)[C@@H](OC(C)=O)[C@H]3OC(C)=O)c2n1 (some centres not stated)
Ki [3]: 31 µM | Ki [4]: > 100 µM

COc1ccc2c(c1)c(=O)c1ccccc1n2CCCCCCn1cc(CO[C@@H]2O[C@H](CO)[C@@H](O)[C@H](O)[C@H]2O)nn1
logP [5]: 2.14 | IC50 [6]: 56.1 µM | IC50 [7]: 82.3 µM

COc1ccc2c(c1)c(=O)c1ccccc1n2CCCCCCn1cc(CO[C@@H]2O[C@H](CO)[C@@H](O)[C@H]2O)nn1
IC50 [6]: 81.8 µM | IC50 [7]: 35.1 µM

CC(=O)Nc1nc(NCc2ccccc2)c2ncn(C3O[C@H](CC(=O)NCc4ccccc4)[C@H](OC(C)=O)[C@H]3OC(C)=O)c2n1 (some centres not stated)
Ki [3]: 50.5 µM | Ki [4]: > 100 µM

CC1(C)O[C@H]2[C@@H](O1)[C@@H](CNCCCCCCCCCNc1c3c(nc4ccccc14)CCCC3)O[C@@H]1OC(C)(C)O[C@@H]12
IC50 [1]: 0.037 µM | IC50 [2]: 0.0048 µM

CCCCCCCCCCCCNC(=O)[C@@H](OCc1ccccc1)[C@H]1OC(N=[N+]=[N-])[C@H](OC(C)=O)[C@H]1OC(C)=O (some centres not stated)
Ki [8]: > 100 µM

CC(=O)Nc1nc(Cl)c2c(ncn2C2O[C@H](C(=O)O)[C@@H](OC(C)=O)[C@@H](OC(C)=O)[C@H]2OC(C)=O)n1 (some centres not stated)
Ki [3]: 37.9 µM | Ki [4]: > 100 µM

COc1ccc2c(c1)c(=O)c1ccccc1n2CCCCCCn1cc(CO[C@@H]2O[C@H](CO)[C@H](O)[C@H](O)[C@H]2O)nn1
IC50 [6]: 44.7 µM | IC50 [7]: 65.6 µM

CCCCCCCCCCCCNC(=O)[C@@H](OCc1ccccc1)[C@H]1O[C@@H](n2cc(-c3ccccc3)nn2)[C@H](OC(C)=O)[C@H]1OCc1ccccc1
Ki [8]: 3.53 µM

COc1cc([C@@H](O)[C@H](CO[C@@H]2O[C@H](CO)[C@@H](O)[C@H](O)[C@H]2O)Oc2ccc(CCCO)cc2OC)ccc1O
IC50 [9]: 0.75 µM

CO[C@H]1O[C@H](Cn2c(=O)c3c(ncn3C)n(C)c2=O)[C@@H](OC(C)=O)[C@H](OC(C)=O)[C@H]1OC(C)=O
Ki [10]: 4 µM | Ki [8]: 4.3 µM

CO[C@@H]1O[C@H](CNCCCCCCCCCCNc2c3c(nc4ccccc24)CCCC3)[C@H]2OC(C)(C)O[C@@H]12
IC50 [1]: 0.064 µM | IC50 [2]: 0.065 µM

COc1ccc2c(c1)c(=O)c1ccccc1n2CCCCCCn1cc(CO[C@H]2C[C@H](O)[C@@H](CO)O2)nn1
IC50 [6]: 85.1 µM | IC50 [7]: 35.4 µM

CC(=O)Nc1nc(Cl)c2c(ncn2C2O[C@H](C(=O)NCc3ccccc3)[C@@H](OC(C)=O)[C@@H](OC(C)=O)[C@H]2OC(C)=O)n1 (some centres not stated)
Ki [3]: 18.7 µM | Ki [4]: > 100 µM

O=c1c2ccccc2n(CCCCCCn2cc(CO[C@@H]3O[C@H](CO)[C@@H](O)[C@H](O)[C@H]3O)nn2)c2ccccc12
logP [5]: 2.14 | IC50 [6]: 38.2 µM | IC50 [7]: 29.3 µM

Cn1cnc2c1c(=O)n(C[C@H]1O[C@@H]3OC(C)(C)O[C@@H]3[C@H]1OCc1ccccc1)c(=O)n2C
Ki [8]: > 100 µM

CCCCCCCCCCCCNC(=O)[C@@H](OCc1ccccc1)[C@H]1O[C@@H](N=[N+]=[N-])[C@H](OC(C)=O)[C@H]1OCc1ccccc1
Ki [8]: 1.73 µM

CC(=O)Nc1nc(Cl)c2ncn(C3O[C@H]4[C@H](OC(=O)[C@@H]4O)[C@H]3OC(C)=O)c2n1 (some centres not stated)
Ki [3]: 23.7 µM | Ki [4]: > 100 µM

COC1O[C@H](Cn2ccc(=O)[nH]c2=O)[C@@H](OCc2ccccc2)[C@H](OCc2ccccc2)[C@H]1OCc1ccccc1 (some centres not stated)
Ki [10]: < 100 µM

CCCCCCCC[Se]C[C@H]1OC(OC)[C@H](O)[C@H]1O (some centres not stated)
IC50 [11]: 210 µM

OC[C@H]1O[C@@H](OCCN2CN(Cc3ccccc3)c3ccccc32)[C@H](O)[C@@H](O)[C@@H]1O
Ki [12]: 52 µM

CO[C@H]1O[C@H](Cn2cnc3c(Cl)nc(NC(C)=O)nc32)[C@@H](OCc2ccccc2)[C@H](OCc2ccccc2)[C@H]1OCc1ccccc1
Ki [10]: < 100 µM | Ki [8]: 7.1 µM

CCCCCCCCCCCCNC(=O)[C@@H](OCc1ccccc1)[C@H]1OC(OC(C)=O)[C@H](OC(C)=O)[C@H]1OC(C)=O (some centres not stated)
Ki [8]: > 100 µM

CC(=O)O[C@H]1C(NS(C)(=O)=O)O[C@H](Cn2c(=O)c3c(ncn3C)n(C)c2=O)[C@@H]1OCc1ccccc1 (some centres not stated)
Ki [8]: 6.61 µM

Source: ChEMBL document CHEMBL5233206, “An overview on the synthesis of carbohydrate-based molecules with biological activity related to neurodegenerative diseases” (RSC Med Chem, 2021)
